Test results as given in PubChem BioAssay (NCI).
“And” between values parts separate entries of the source, which are not always exact repeats. Equal values may be shown once.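 Each compound was tested at five concentrations against cells in 96-well plates for 48 hours. GI50 = concentration required for 50% inhibition of growth. TGI marks complete inhibition of growth.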

Legend:
Assay in all cases: NCI anticancer screen, dose series, 48 h
[1] = tested on: 786-0 renal
[2] = tested on: MDA-MB-231 breast
[3] = tested on: SF-295 CNS
[4] = tested on: HL-60(TB) leukemia
[5] = tested on: HCT-116 colon
[6] = tested on: RPMI-8226 leukemia
[7] = tested on: MOLT-4 leukemia
[8] = tested on: DU-145 prostate
[9] = tested on: SNB-75 CNS
[10] = tested on: A498 renal

SMILES | TGI [1] | TGI [2] | TGI [3] | TGI [4] | TGI [5] | TGI [6] [µM] | TGI [7] | TGI [8] | TGI [9] | TGI [10] [µM] | GI50 [1] | GI50 [2] | GI50 [3] | GI50 [4] | GI50 [5] | GI50 [6] [µM] | GI50 [7] | GI50 [8] | GI50 [9] | GI50 [10] [µM]
COC(=O)c1sc(C(=O)OC)c2c1CSC2 | > 100 µM | > 100 µM | > 100 µM | > 100 µM | > 100 µM | > 100 | > 100 µM | > 100 µM | 57.7 µM | > 100 | – | – | – | – | – | – | – | – | – | –
CC(C)c1ccc(/C(C(=O)O)=C(\O)C(=O)O)cc1 | > 100 µM | > 100 µM | > 100 µM | > 100 µM | > 100 µM | > 100 | > 100 µM | > 100 µM | > 100 µM | > 100 | – | – | – | – | – | – | – | – | – | –
Cc1cc(C)c(C[N+](C)(C)C)c(C)c1C | 13.2 µM | 25.8 µM | 7.25 µM | > 24.7 µM | 24.8 µM | 15.9 | > 52.9 µM | 11.4 µM | 11.5 µM | 8.66 | 0.323 µM | 0.471 µM | 0.255 µM | 0.496 µM | 0.32 µM | 0.588 | 0.349 µM | 0.347 µM | 0.402 µM | 0.729
N#Cc1cnc2cc(OC[C@@H](O)CO)c(NC(=O)CC3CSSC3)cc2c1Nc1ccc(OCc2cccc(F)c2)c(Cl)c1 | 4.57 µM | 0.237 µM | 1.78 µM | 1.47 µM | 0.2 µM | 1.74 | 0.174 µM | 0.398 µM | 1.58 µM | 1.92 | 1.38 µM | 0.104 µM | 0.88 µM | 0.589 µM | 0.0882 µM | 0.557 | 0.0736 µM | 0.131 µM | 0.738 µM | 0.848
OCC1OC(n2ccc3c(NO)ncnc32)C(O)C1O (centres undefined) | 1.1 µM | – | 0.599 µM | 0.638 µM | 1.03 µM | 0.504 | 0.477 µM | 0.702 µM | 1.82 µM | 0.794 | 0.239 µM | 0.233 µM | 0.144 µM | 0.214 µM | 0.0296 µM | 0.138 | 0.153 µM | 0.111 µM | 0.172 µM | 0.152
N#Cc1c(-c2ccccc2)cc(-c2ccc(Nc3nc(Nc4ccc(Cl)cc4)nc(Nc4ccc(Cl)cc4)n3)cc2)nc1N | 3.46 µM | 4.89 µM | 43.6 µM | 5.35 µM | 3 µM | > 100 | 4.53 µM | 20.4 µM | 14.4 µM | 8.72 | 1.91 µM | 1.76 µM | 10.3 µM | 1.71 µM | 1.48 µM | 3.81 | 1.62 µM | 4.67 µM | 2.65 µM | 1.28
O=c1nc(Nc2cccc(Cl)c2)oc2cc(Cl)oc(=O)c12 | 66.4 µM | 30.9 µM | 43 µM | 55.2 µM | 41.3 µM | 43.1 | 16.3 µM | 25.3 µM | 21.4 µM | 27.3 | 20.2 µM | 5.78 µM | 12.1 µM | 10.8 µM | 10.7 µM | 4.02 | 3.24 µM | 10.4 µM | 6.96 µM | 10.9
O=C(c1ccc2ncc(-c3nc(NC4CC4)ncc3F)n2c1)N1CCOCC1 | 27.5 µM | 8.98 µM | > 100 µM | 5.15 µM | 10.4 µM | 5.32 | 7.1 µM | > 100 µM | 3.58 µM | 3.82 | 3.06 µM | 2.4 µM | 2.64 µM | 1.97 µM | 1.23 µM | 1.98 | 2.48 µM | 2.68 µM | 1.47 µM | 1.63
CC/C=C\C[C@H](O)C/C=C1/C(=O)C=C[C@@H]1C/C=C\CCCC(=O)N(C)C | 2.09 µM | 8.95 µM | 11.1 µM | 13.6 µM | 1.68 µM | 6.01 | 12.8 µM | 15.4 µM | 33.4 µM | 4.46 | 0.504 µM | 3.12 µM | 2.97 µM | 2.27 µM | 0.44 µM | 0.671 | 2.78 µM | 3.27 µM | 10.9 µM | 2.56
Cc1nc2ccc(Nc3nc(NCCN4CCOCC4)nc(Nc4ccc(F)cc4)n3)cc2n1Cc1ccccc1 | 3.04 µM | 3.71 µM | 2.93 µM | 4.72 µM | 5.43 µM | 4.62 | 10.9 µM | 71.6 µM | 4.82 µM | 5.13 | 1.41 µM | 1.71 µM | 1.49 µM | 1.82 µM | 2.02 µM | 1.74 | 2.7 µM | 5.56 µM | 1.59 µM | 1.35
C#CC1(O)C(COP(=O)(O)OC2CC(n3cc(F)c(=O)[nH]c3=O)OC2CO)OC(n2ccc(N)nc2=O)C1O (centres undefined) | > 100 µM | > 61.9 µM | – | – | > 100 µM | – | > 39 µM | 3.62 µM | 1.18 µM | 1.87 | < 0.0117 µM | 0.0731 µM | < 0.01 µM | < 0.0181 µM | < 0.01 µM | < 0.01 | < 0.01 µM | < 0.011 µM | < 0.0169 µM | 0.0824
O=C(NCCCNc1cc(-c2cn(-c3ccccc3)nc2-c2cccc(O)c2)ccn1)c1ccccc1 | 4.69 µM | 5.4 µM | 4.81 µM | 4.19 µM | 17 µM | 3.3 | 3.78 µM | 96.5 µM | 46.9 µM | 66.4 | 2.04 µM | 2.34 µM | 1.76 µM | 1.68 µM | 3.58 µM | 1.06 | 1.41 µM | 5.29 µM | 1.68 µM | 2.32
O=C1C=C(Br)C(=O)C12CCc1ccccc12 (centres undefined) | 42.3 µM | 70.2 µM | 36.6 µM | 25.2 µM | 28.7 µM | > 37.5 | 6.89 µM | 31.7 µM | 29.5 µM | 24.1 | – | – | – | – | – | – | – | – | – | –
CN1CCCN(C)C1c1cc([N+](=O)[O-])ccc1O | > 100 µM | > 100 µM | > 100 µM | 61.4 µM | > 100 µM | > 100 | 59.8 µM | > 100 µM | > 100 µM | > 100 | – | – | – | – | – | – | – | – | – | –
O=C(Nc1ccc(Cl)cc1)c1ccc(NC2=C(Cl)C(=O)N(Cc3ccccc3)C2=O)cc1 | 24.4 µM | 38.1 µM | 19.9 µM | > 100 µM | 7.59 µM | 12.4 | 44.8 µM | 38.6 µM | 52.5 µM | 47.8 | 10.8 µM | 13.9 µM | 5.8 µM | 6.23 µM | 2.41 µM | 2.7 | 3.26 µM | 14.4 µM | 20.1 µM | 17.7
C=C1C(=O)O[C@H]2[C@H]1CC/C(COC(=O)NCc1ccc(Cn3c(=O)sn(CCCCl)c3=O)cc1)=C\CC[C@@]1(C)O[C@@H]21 | 2.9 µM | 3.33 µM | 31.7 µM | 3.77 µM | 1.87 µM | 3.1 | 5.41 µM | 3.15 µM | 11.4 µM | 11.8 | 1.48 µM | 1.72 µM | 17.7 µM | 0.967 µM | 0.565 µM | 0.764 | 1.5 µM | 1.64 µM | 2.03 µM | 2.83
CCCCCCCCCCN(CCCCCCCCCC)CC(=O)c1ccc2cc(Br)c3ccccc3c2c1 | 3.39 µM | 3.26 µM | 3.53 µM | 4.22 µM | 3.17 µM | 4.88 | 6.2 µM | 10.3 µM | 5.45 µM | 22.4 | 1.81 µM | 1.67 µM | 1.75 µM | 2.01 µM | 1.67 µM | 2.27 | 2.66 µM | 3.69 µM | 2.1 µM | 10.2
CCOC(=O)C(=Cc1ccccc1[N+](=O)[O-])C(=O)OCC | 11.8 µM | 7.59 µM | 20.1 µM | 45.5 µM | 7.56 µM | 18.3 | 34.5 µM | 12 µM | 9.68 µM | 17.3 | 3.85 µM | 2.48 µM | 5.38 µM | 3.3 µM | 2.53 µM | 3.69 | 3.55 µM | 3.22 µM | 2.57 µM | 5.6
CCOc1cc2c(NCCCN(CCO)CCO)ncnc2c(OCC)c1OCC | > 100 µM | > 100 µM | > 100 µM | > 100 µM | > 100 µM | > 100 | > 100 µM | > 100 µM | > 100 µM | > 100 | – | – | – | – | – | – | – | – | – | –
COc1ccc2c(Nc3ccc(NS(C)(=O)=O)cc3)c3ccccc3nc2c1 | 4.24 µM | 6.65 µM | 2.53 µM | 4.45 µM | 3.96 µM | 4.09 | 22.5 µM | 6.46 µM | 2.12 µM | 2.05 | 0.544 µM | 1.52 µM | 0.381 µM | 0.427 µM | 0.262 µM | 0.431 | 0.111 µM | 0.315 µM | 0.718 µM | 0.375
COc1ccc(/C=C/c2nc(NCCCN(C)C)c3ccccc3n2)cc1 | 26.7 µM | 5.24 µM | 11 µM | 3.86 µM | 5.88 µM | 4.64 | 3.55 µM | 27 µM | 2.88 µM | 27.7 | 13.3 µM | 1.99 µM | 5.15 µM | 1.71 µM | 2.3 µM | 1.78 | 1.61 µM | 13.9 µM | 1.34 µM | 14
O=c1[nH]c(=O)n(C2OC(CO)C(O)C2O)c2c1CCCC2 (centres undefined) | > 100 µM | > 100 µM | > 100 µM | > 100 µM | > 100 µM | > 100 | > 100 µM | > 100 µM | > 100 µM | > 100 | – | – | – | – | – | – | – | – | – | –
C[C@]1(CO)[C@H]2CC[C@@]34C=C[C@@](CO)(CC[C@H]3[C@]2(C)CC[C@H]1O)C4 | > 100 µM | > 100 µM | > 100 µM | > 100 µM | > 100 µM | 86.6 | 48.9 µM | > 100 µM | > 100 µM | > 100 | – | – | – | – | – | – | – | – | – | –
CCOC(=O)C(Cc1c[nH]c2ccc(N(CCCl)CCCl)cc12)(NC(C)=O)C(=O)OCC | 23.3 µM and 21.8 µM | 81.2 µM and 575 µM | 32 µM and 232 µM | 12.1 µM and 9.89 µM | 31.3 µM and 37.9 µM | 33.4 | 13 µM and 26.2 µM | 70 µM and 58.1 µM | 67.9 µM and 57 µM | 54.2 | 4.78 µM and 3.71 µM | 24.6 µM and 33.3 µM | 5.41 µM and 4.2 µM | 3.29 µM and 1.43 µM | 11.7 µM and 10.9 µM | 6.41 | 2.88 µM and 0.957 µM | 14.6 µM and 7.62 µM | 11.5 µM and 6.53 µM | 20.3
CC(C)c1ccc(C(=O)Nc2sc3c(c2C#N)CCC(=O)C3)cc1 | > 21.8 µM | 2.88 µM | > 28.1 µM | – | > 24.3 µM | – | > 100 µM | > 100 µM | 5.38 µM | 6.29 | 0.67 µM | 0.594 µM | 1.36 µM | 0.413 µM | 0.18 µM | 0.152 | 0.412 µM | 4.26 µM | 0.601 µM | 1.92
C=C1C(=O)OC2CC1C(O)C/C(C)=C/CC/C(C)=C/C(O)CC2C (centres undefined) | 3.99 µM | 12.4 µM | 26.7 µM | 1.32 µM | 3.33 µM | 6.23 | 3.11 µM | 10.8 µM | 16.3 µM | 9.16 | – | – | – | – | – | – | – | – | – | –
